The record followed here is patent US10035790B2, “RORγ modulators” (BRISTOL-MYERS SQUIBB COMPANY, priority 2012, dated 2018).

Broadly, the IC50 is the midpoint of a concentration-inhibition curve.

This experiment deals with T1, ligand binding domain of human RORγ (A262-S507) (Homo sapiens, UniProt P51449).
T1 construct: made in house; host or cells: E. coli
T1 sequence (P51449 262-507): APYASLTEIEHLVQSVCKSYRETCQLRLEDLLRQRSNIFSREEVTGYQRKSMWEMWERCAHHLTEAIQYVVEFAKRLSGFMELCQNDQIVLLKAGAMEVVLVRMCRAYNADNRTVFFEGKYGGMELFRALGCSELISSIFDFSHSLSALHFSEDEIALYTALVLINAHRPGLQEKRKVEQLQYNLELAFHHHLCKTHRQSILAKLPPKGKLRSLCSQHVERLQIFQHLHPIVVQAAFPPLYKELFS
Description: General RORγ SPA binding assay (competition with [3H]25-hydroxycholesterol). Conditions: RORγ SPA binding assay, inhibition of [3H]25-hydroxycholesterol binding; read-out: IC50. The procedure, abridged:
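Scintillation counts from copper His-tag SPA beads (4 mg/mL, 30 min) gave percent inhibition of radioligand binding, from which IC50 values are derived. The E. coli-expressed His-tagged domain (50 nM) is first exposed to compound for 15 min at room temperature in PBS containing 0.5% fatty acid free BSA.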
With `Cc1cc(C)cc(CNC(=O)c2cnc(C)nc2C2CCN(C(=O)Cc3ccccc3F)CC2)c1` [Compound A12, N-(3,5-dimethylbenzyl)-4-(1-(2-(2-fluorophenyl)acetyl)piperidin-4-yl)-2-methylpyrimidine-5-carboxamide], the IC50 was 50 nM.

Turning to `C/C(=N\Oc1ccnc(C(F)(F)F)c1)c1cnc(C)nc1C1CCN(C(=O)Cc2c(F)cccc2F)CC1(F)F` (stereo not drawn) [Compound B34, (E)-1-(3,3-Difluoro-4-(2-methyl-5-(1-(2-(trifluoromethyl)pyridin-4-yloxyimino)ethyl)pyrimidin-4-yl)piperidin-1-yl)-2-(2,6-difluorophenyl)ethanone], the half-maximal inhibitory concentration (IC50) was determined as 12.5 nM.

Consider `Cc1nc(C)c(-c2nnc(-c3ccnc(C(F)(F)F)n3)o2)c(C2CCN(C(=O)c3c(F)cccc3F)CC2)n1` [Compound C24, 4-{1-[(2,6-Difluorophenyl)carbonyl]piperidin-4-yl}-2,6-dimethyl-5-{5-[2-(trifluoromethyl)pyrimidin-4-yl]-1,3,4-oxadiazol-2-yl}pyrimidine], for which the IC50 is 277 nM.

With `CSc1nc(C)c(-c2nnc(-c3cccc(C(F)(F)F)n3)o2)c(C2CCN(C(=O)Nc3c(F)cccc3F)CC2)n1` [Compound C58, N-(2,6-Difluorophenyl)-4-[6-methyl-2-(methylthio)-5-{5-[6-(trifluoromethyl)pyridin-2-yl]-1,3,4-oxadiazol-2-yl}pyrimidin-4-yl]piperidine-1-carboxamide], the concentration for half-maximal inhibition (IC50) was found to be 14.1 nM.

As to `Cc1nc(C)c(C(=O)COc2ccnc(C(F)(F)F)n2)c(C2CCN(C(=O)Nc3c(F)cccc3F)CC2)n1` [Compound M8, N-(2,6-Difluorophenyl)-4-[2,6-dimethyl-5-({[2-(trifluoromethyl)pyrimidin-4-yl]oxy}acetyl)pyrimidin-4-yl]piperidine-1-carboxamide], the half-inhibitory concentration (IC50) stood at 1.7 nM.

As for `Cc1ncc(C(C)(C)CNc2ccnc(C(F)(F)F)n2)c(C2CCN(C(=O)Nc3c(F)cccc3F)CC2)n1` [Compound F8, N-(2,6-Difluorophenyl)-4-(2-methyl-5-(2-methyl-1-(2-(trifluoromethyl)pyrimidin-4-ylamino)propan-2-yl)pyrimidin-4-yl)piperidine-1-carboxamide], the IC50 was 1340 nM.

As to `Cc1nc(C)c(C(O)COc2cccc(C(F)(F)F)n2)c(C2CCN(C(=O)Nc3c(F)cccc3F)CC2)n1` (stereo not drawn) [Compound N6, N-(2,6-Difluorophenyl)-4-[5-(1-hydroxy-2-{[6-(trifluoromethyl)pyridin-2-yl]oxy}ethyl)-2,6-dimethylpyrimidin-4-yl]piperidine-1-carboxamide], the IC50 turned out to be 4 nM.

Take `Cc1ncc(C(O)(CN=[N+]=[N-])COc2cccc(C(F)(F)F)n2)c(C2CCN(C(=O)Nc3c(F)cccc3F)CC2)n1` (stereo not drawn) [Compound N33, 4-{5-[2-Azido-1-hydroxy-1-({[6-(trifluoromethyl)pyridin-2-yl]oxy}methyl)ethyl]-2-methylpyrimidin-4-yl}-N-(2,6-difluorophenyl)piperidine-1-carboxamide]: the half-inhibitory concentration (IC50) was determined as 2.9 nM.

Turning to `Cc1nc(C)c(-c2nnc(-c3ccnc(C(F)(F)F)n3)o2)c(C2CCN(C(=O)Cc3ccccc3Cl)CC2)n1` [Compound C41, 4-{1-[(2-Chlorophenyl)acetyl]piperidin-4-yl}-2,6-dimethyl-5-{5-[2-(trifluoromethyl)pyrimidin-4-yl]-1,3,4-oxadiazol-2-yl}pyrimidine], the IC50 was 20.5 nM.

On to `CNc1nc(C)nc(C2CCN(C(=O)Cc3c(F)cccc3F)CC2)c1C(=O)NCc1cccc(Cl)c1` [Compound A109], for which the half-maximal inhibitory concentration (IC50) amounted to 7.3 nM.

As for `Cc1cc(C)cc(CNC(=O)c2cnc(C)nc2C2CCN(C(=O)c3ccccc3F)CC2)c1` [Compound A23, N-(3,5-dimethylbenzyl)-4-(1-(2-fluorobenzoyl)piperidin-4-yl)-2-methylpyrimidine-5-carboxamide], the half-inhibitory concentration (IC50) worked out at 254 nM.

On to `CSc1ncc(C(=O)NCc2ccc(Cl)c(Cl)c2)c(C2CCN(C(=O)Cc3c(F)cccc3F)CC2)n1` [Compound A85, N-(3,4-dichlorobenzyl)-4-(1-(2-(2,6-difluorophenyl)acetyl)piperidin-4-yl)-2-(methylthio)pyrimidine-5-carboxamide], for which the IC50 amounted to 43.8 nM.

Consider `Cc1nc(C)c(-c2nnc(-c3ccnc(C(F)(F)F)n3)o2)c(C2CCN(C(=O)Cc3c(F)cccc3F)CC2)n1` [Compound C5, 4-{1-[(2,6-Difluorophenyl)acetyl]piperidin-4-yl}-2,6-dimethyl-5-{5-[2-(trifluoromethyl)pyrimidin-4-yl]-1,3,4-oxadiazol-2-yl}pyrimidine], for which the IC50 came out at 6.3 nM.

Regarding `Cc1ncc(C(=O)NCc2cc(Cl)ccc2F)c(C2CCN(C(=O)Cc3c(F)cccc3F)CC2)n1` [Compound A42, N-(5-chloro-2-fluorobenzyl)-4-(1-(2-(2,6-difluorophenyl)acetyl)piperidin-4-yl)-2-methylpyrimidine-5-carboxamide], the IC50 turned out to be 5.1 nM.

In the case of `Cc1nc(N)nc(C2CCN(C(=O)Nc3c(F)cccc3C(F)(F)F)CC2)c1-c1nnc(-c2ccnc(C(F)(F)F)n2)o1` [Compound C49, 4-(2-Amino-6-methyl-5-{5-[2-(trifluoromethyl)pyrimidin-4-yl]-1,3,4-oxadiazol-2-yl}pyrimidin-4-yl)-N-[2-fluoro-6-(trifluoromethyl)phenyl]piperidine-1-carboxamide], the IC50 amounted to 23.3 nM.

Take `Cc1ncc(C(C)(O)CNc2ccnc(C(F)(F)F)n2)c(C2CCN(C(=O)Nc3c(F)cccc3C(F)(F)F)CC2)n1` (stereo not drawn) [Compound D18, N-[2-Fluoro-6-(trifluoromethyl)phenyl]-4-[5-(1-hydroxy-1-methyl-2-{[2-(trifluoromethyl)pyrimidin-4-yl]amino}ethyl)-2-methylpyrimidin-4-yl]piperidine-1-carboxamide]: the 50% inhibitory concentration (IC50) came out at 112 nM.

As for `Nc1ncc(C(O)COc2cccc(C(F)(F)F)n2)c(C2CCN(C(=O)Nc3c(F)cccc3F)CC2)n1` (stereo not drawn) [Compound N3, 4-[2-Amino-5-(1-hydroxy-2-{[6-(trifluoromethyl)pyridin-2-yl]oxy}ethyl)pyrimidin-4-yl]-N-(2,6-difluorophenyl)piperidine-1-carboxamide], the half-maximal inhibitory concentration (IC50) was 2.3 nM.

In the case of `C/C(=N\Oc1cc(Cl)nc(C(F)(F)F)c1)c1cnc(C)nc1C1CCN(C(=O)Nc2c(F)cccc2F)CC1` [Compound B40, 4-{5-[(1E)-N-{[2-chloro-6-(trifluoromethyl)pyridin-4-yl]oxy}ethanimidoyl]-2-methylpyrimidin-4-yl}-N-(2,6-difluorophenyl)piperidine-1-carboxamide], the IC50 was 21.4 nM.

Turning to `Cc1cc(C)cc(CNC(=O)c2cnc(C)nc2C2C=CN(C(=O)Cc3c(F)cccc3F)CC2)c1` (stereo not drawn) [Compound A114, 4-(1-(2-(2,6-Difluorophenyl)acetyl)-1,2,3,4-tetrahydropyridin-4-yl)-N-(3,5-dimethylbenzyl)-2-methylpyrimidine-5-carboxamide], the IC50 is 3 nM.

Regarding `Cc1cc(C)cc(NCC(C)(O)c2cnc(C)nc2C2CCN(C(=O)Cc3c(F)cccc3F)CC2)c1` (stereo not drawn) [Compound D3, 2-(2,6-difluorophenyl)-1-(4-(5-(1-((3,5-dimethylphenyl)amino)-2-hydroxypropan-2-yl)-2-methylpyrimidin-4-yl)piperidin-1-yl)ethanone], the concentration for half-maximal inhibition (IC50) was determined as 5 nM.

For the compound `O=C(COc1ccnc(C(F)(F)F)n1)c1cnc(NCCF)nc1C1CCN(C(=O)Nc2c(F)cccc2F)CC1` [Compound M7, N-(2,6-Difluorophenyl)-4-{2-[(2-fluoroethyl)amino]-5-({[2-(trifluoromethyl)pyrimidin-4-yl]oxy}acetyl)pyrimidin-4-yl}piperidine-1-carboxamide], the half-inhibitory concentration (IC50) came to 159 nM.

With `Cc1ncc(C(=O)NCc2cccc(OC(F)(F)F)c2)c(C2CCN(C(=O)Cc3c(F)cccc3F)CC2)n1` [Compound A53, 4-(1-(2-(2,6-difluorophenyl)acetyl)piperidin-4-yl)-2-methyl-N-(3-(trifluoromethoxy)benzyl)pyrimidine-5-carboxamide], the half-maximal inhibitory concentration (IC50) stood at 8.1 nM.

Take `Cc1cc(C)cc(CNC(C)c2cnc(C)nc2C2CCN(C(=O)Cc3c(F)cccc3F)CC2)c1` (stereo not drawn) [Compound F9, 2-(2,6-Difluorophenyl)-1-(4-(5-(1-(3,5-dimethylbenzylamino)ethyl)-2-methylpyrimidin-4-yl)piperidin-1-yl)ethanone]: the IC50 is 29.9 nM.

As to `Cc1cc(C)cc(CNC(=O)c2cnc(C)nc2C2CCN(C(=O)Oc3c(F)cccc3F)CC2)c1` [Compound A120, 2,6-Difluorophenyl 4-[5-({[(3,5-dimethylphenyl)methyl]amino}carbonyl)-2-methylpyrimidin-4-yl]piperidine-1-carboxylate], the concentration for half-maximal inhibition (IC50) amounted to 6 nM.

On to `Cc1nc(C)c(-c2nnc(-c3ccnc(C(F)(F)F)n3)o2)c(C2CCN(C(=O)Oc3ccccc3Cl)CC2)n1` [Compound C45, 2-Chlorophenyl 4-(2,6-dimethyl-5-{5-[2-(trifluoromethyl)pyrimidin-4-yl]-1,3,4-oxadiazol-2-yl}pyrimidin-4-yl)piperidine-1-carboxylate], for which the IC50 worked out at 42.8 nM.

Regarding `CCOc1ncc(C(=O)NCc2cccc(Cl)c2)c(C2CCN(C(=O)Cc3c(F)cccc3F)CC2)n1` [Compound A93, N-(3-chlorobenzyl)-4-(1-(2-(2,6-difluorophenyl)acetyl)piperidin-4-yl)-2-ethoxypyrimidine-5-carboxamide], the IC50 is 16 nM.

`CSc1ncc(/C(C)=N/Oc2ccnc(Cl)c2)c(C2CCN(C(=O)Nc3c(F)cccc3F)CC2)n1` [Compound B58, 4-[5-{(1E)-N-[(2-Chloropyridin-4-yl)oxy]ethanimidoyl}-2-(methylthio)pyrimidin-4-yl]-N-(2,6-difluorophenyl)piperidine-1-carboxamide]: the IC50 was 4090 nM.
